The source of these data is US11759462B2, “Spirocyclic compounds as tryptophan hydroxylase inhibitors” (priority 2013, dated 2023).

The term IC50 denotes the point on the concentration scale where inhibition reaches its midpoint.

In this test the target is T1, Recombinant human TPH1 (MBP tagged) (Homo sapiens, UniProt P17752).
T1 construct: cloning full length human TPH1 cDNA in to a bacterial pMAL-c5E expression vector; made in house; host or cells: E. coli BL21 (DE3)
T1 sequence (P17752 1-444): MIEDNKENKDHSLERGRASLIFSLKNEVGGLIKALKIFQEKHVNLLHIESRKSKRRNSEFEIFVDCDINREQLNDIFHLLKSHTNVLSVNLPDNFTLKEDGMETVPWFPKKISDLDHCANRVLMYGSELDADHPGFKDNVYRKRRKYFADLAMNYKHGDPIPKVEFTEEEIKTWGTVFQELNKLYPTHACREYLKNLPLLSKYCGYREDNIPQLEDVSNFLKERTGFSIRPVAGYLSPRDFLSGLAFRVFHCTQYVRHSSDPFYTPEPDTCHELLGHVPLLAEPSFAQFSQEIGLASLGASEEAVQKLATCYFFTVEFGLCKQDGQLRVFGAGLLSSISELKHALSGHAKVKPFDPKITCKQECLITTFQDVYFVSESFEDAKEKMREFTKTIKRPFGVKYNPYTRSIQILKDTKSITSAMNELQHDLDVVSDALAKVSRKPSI
Nature of the test: TPH1 in vitro inhibition assay (kinetic fluorescence). The class given is biochemical. The essentials: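 Final mix: 15 nM MBP-TPH1, 30 μM Trp, 36 μM 6-methyltetrahydropterin, 25 μM ferrous ammonium sulfate, 50 mM MES pH 7.1, 1% DMSO, room temperature.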

Setting [1] is: read-out: TPH1 Range (TPH1 inhibition IC50).
[2] abbreviates: TPH1 Range (TPH1 inhibition IC50).

Like-named read-outs stand apart in the source and are kept apart here.

`CCOc1ccc(-c2cc(Cl)ccc2[C@@H](Oc2cc(N3CCC4(CC3)CN[C@H](C(=O)O)C4)nc(N)n2)C(F)(F)F)cc1F` [Example 34az, (S)-8-(2-amino-6-((R)-1-(5-chloro-4′-ethoxy-3′-fluoro-[1,1′-biphenyl]-2-yl)-2,2,2-trifluoroethoxy)pyrimidin-4-yl)-2,8-diazaspiro[4.5]decane-3-carboxylic acid]: the IC50 under setting [1] lay within 300 to 3000 nM.

For `Cc1cccc(-c2cc(Cl)ccc2[C@@H](Oc2cc(N3CCC4(CC3)CN[C@H](C(=O)O)C4)nc(N)n2)C(F)(F)F)c1` [Example 34b, (S)-8-(2-amino-6-((R)-1-(5-chloro-3′-methyl-[1,1′-biphenyl]-2-yl)-2,2,2-trifluoroethoxy)pyrimidin-4-yl)-2,8-diazaspiro[4.5]decane-3-carboxylic acid], the IC50 under setting [2] was under 50 nM.

On to `Cc1cc(C)cc(-c2cc(Cl)ccc2[C@@H](Oc2cc(N3CCC4(CC3)CN[C@H](C(=O)O)C4)nc(N)n2)C(F)(F)F)c1` [Example 34ba, (S)-8-(2-amino-6-((R)-1-(5-chloro-3′,5′-dimethyl-[1,1′-biphenyl]-2-yl)-2,2,2-trifluoroethoxy)pyrimidin-4-yl)-2,8-diazaspiro[4.5]decane-3-carboxylic acid], for which the concentration for half-maximal inhibition (IC50) under setting [1] is under 50 nM.

In the case of `Cc1cc(-c2cc(Cl)ccc2[C@@H](Oc2cc(N3CCC4(CC3)CN[C@H](C(=O)O)C4)nc(N)n2)C(F)(F)F)ccc1OC(F)(F)F` [Example 34bb, (S)-8-(2-amino-6-((R)-1-(5-chloro-3′-methyl-4′-(trifluoromethoxy)-[1,1′-biphenyl]-2-yl)-2,2,2-trifluoroethoxy)pyrimidin-4-yl)-2,8-diazaspiro[4.5]decane-3-carboxylic acid], the IC50 under setting [1] is 50 to 300 nM.

For the compound `Cc1cc(-c2cc(Cl)ccc2[C@@H](Oc2cc(N3CCC4(CC3)CN[C@H](C(=O)O)C4)nc(N)n2)C(F)(F)F)cc(C)c1Cl` [Example 34bc, (S)-8-(2-amino-6-((R)-1-(4′,5-dichloro-3′,5′-dimethyl-[1,1′-biphenyl]-2-yl)-2,2,2-trifluoroethoxy)pyrimidin-4-yl)-2,8-diazaspiro[4.5]decane-3-carboxylic acid], under setting [1], the IC50 lay within 50 to 300 nM.

Take `Cc1cc(-c2cc(Cl)ccc2[C@@H](Oc2cc(N3CCC4(CC3)CN[C@H](C(=O)O)C4)nc(N)n2)C(F)(F)F)ccc1F` [Example 34bd, (S)-8-(2-amino-6-((R)-1-(5-chloro-4′-fluoro-3′-methyl-[1,1′-biphenyl]-2-yl)-2,2,2-trifluoroethoxy)pyrimidin-4-yl)-2,8-diazaspiro[4.5]decane-3-carboxylic acid]: under setting [1], the IC50 is under 50 nM.

As to `Cc1cc(Cl)cc(-c2cc(Cl)ccc2[C@@H](Oc2cc(N3CCC4(CC3)CN[C@H](C(=O)O)C4)nc(N)n2)C(F)(F)F)c1` [Example 34be, (S)-8-(2-amino-6-((R)-1-(3′,5-dichloro-5′-methyl-[1,1′-biphenyl]-2-yl)-2,2,2-trifluoroethoxy)pyrimidin-4-yl)-2,8-diazaspiro[4.5]decane-3-carboxylic acid], under setting [1], the IC50 is under 50 nM.

On to `Nc1nc(O[C@H](c2ccc(Cl)cc2-c2cc(F)c(F)c(F)c2)C(F)(F)F)cc(N2CCC3(CC2)CN[C@H](C(=O)O)C3)n1` [Example 34bf, (S)-8-(2-amino-6-((R)-1-(5-chloro-3′,4′,5′-trifluoro-[1,1′-biphenyl]-2-yl)-2,2,2-trifluoroethoxy)pyrimidin-4-yl)-2,8-diazaspiro[4.5]decane-3-carboxylic acid], for which the IC50 under setting [1] was 50 to 300 nM.

Consider `Nc1nc(O[C@H](c2ccc(Cl)cc2-c2cccc(OC(F)(F)F)c2)C(F)(F)F)cc(N2CCC3(CC2)CN[C@H](C(=O)O)C3)n1` [Example 34bg, (S)-8-(2-amino-6-((R)-1-(5-chloro-3′-(trifluoromethoxy)-[1,1′-biphenyl]-2-yl)-2,2,2-trifluoroethoxy)pyrimidin-4-yl)-2,8-diazaspiro[4.5]decane-3-carboxylic acid], for which the IC50 under setting [1] was 50 to 300 nM.

Consider `Nc1nc(O[C@H](c2ccc(Cl)cc2-c2cc(C(F)(F)F)cc(C(F)(F)F)c2)C(F)(F)F)cc(N2CCC3(CC2)CN[C@H](C(=O)O)C3)n1` [Example 34bh, (S)-8-(2-amino-6-((R)-1-(5-chloro-3′,5′-bis(trifluoromethyl)-[1,1′-biphenyl]-2-yl)-2,2,2-trifluoroethoxy)pyrimidin-4-yl)-2,8-diazaspiro[4.5]decane-3-carboxylic acid], for which, under setting [1], the IC50 lay in the range of 300 to 3000 nM.

For the compound `CC(C)c1cccc(-c2cc(Cl)ccc2[C@@H](Oc2cc(N3CCC4(CC3)CN[C@H](C(=O)O)C4)nc(N)n2)C(F)(F)F)c1` [Example 34bi, (S)-8-(2-amino-6-((R)-1-(5-chloro-3′-isopropyl-[1,1′-biphenyl]-2-yl)-2,2,2-trifluoroethoxy)pyrimidin-4-yl)-2,8-diazaspiro[4.5]decane-3-carboxylic acid], the IC50 under setting [1] is under 50 nM.

`Nc1nc(O[C@H](c2ccc(Cl)cc2-c2cc(Cl)cc(Cl)c2)C(F)(F)F)cc(N2CCC3(CC2)CN[C@H](C(=O)O)C3)n1` [Example 34bj, (S)-8-(2-amino-6-((R)-2,2,2-trifluoro-1-(3′,5,5′-trichloro-[1,1′-biphenyl]-2-yl)ethoxy)pyrimidin-4-yl)-2,8-diazaspiro[4.5]decane-3-carboxylic acid]: the 50% inhibitory concentration (IC50) under setting [1] was under 50 nM.

`Nc1nc(O[C@H](c2ccc(Cl)cc2-c2ccc(F)c(C(F)(F)F)c2)C(F)(F)F)cc(N2CCC3(CC2)CN[C@H](C(=O)O)C3)n1` [Example 34bk, (S)-8-(2-amino-6-((R)-1-(5-chloro-4′-fluoro-3′-(trifluoromethyl)-[1,1′-biphenyl]-2-yl)-2,2,2-trifluoroethoxy)pyrimidin-4-yl)-2,8-diazaspiro[4.5]decane-3-carboxylic acid]: the IC50 under setting [1] was 50 to 300 nM.

Take `CC(C)Oc1cc(F)cc(-c2cc(Cl)ccc2[C@@H](Oc2cc(N3CCC4(CC3)CN[C@H](C(=O)O)C4)nc(N)n2)C(F)(F)F)c1` [Example 34bl, (S)-8-(2-amino-6-((R)-1-(5-chloro-3′-fluoro-5′-isopropoxy-[1,1′-biphenyl]-2-yl)-2,2,2-trifluoroethoxy)pyrimidin-4-yl)-2,8-diazaspiro[4.5]decane-3-carboxylic acid]: the IC50 under setting [1] lay in the range of 50 to 300 nM.

On to `Cc1cc(-c2cc(Cl)ccc2[C@@H](Oc2cc(N3CCC4(CC3)CN[C@H](C(=O)O)C4)nc(N)n2)C(F)(F)F)cc(C(C)(C)C)c1` [Example 34bm, (S)-8-(2-amino-6-((R)-1-(3′-(tert-butyl)-5-chloro-5′-methyl-[1,1′-biphenyl]-2-yl)-2,2,2-trifluoroethoxy)pyrimidin-4-yl)-2,8-diazaspiro[4.5]decane-3-carboxylic acid], for which the IC50 under setting [1] lay within 50 to 300 nM.

As for `Cc1ccc(-c2cc(Cl)ccc2[C@@H](Oc2cc(N3CCC4(CC3)CN[C@H](C(=O)O)C4)nc(N)n2)C(F)(F)F)cc1F` [Example 34bn, (S)-8-(2-amino-6-((R)-1-(5-chloro-3′-fluoro-4′-methyl-[1,1′-biphenyl]-2-yl)-2,2,2-trifluoroethoxy)pyrimidin-4-yl)-2,8-diazaspiro[4.5]decane-3-carboxylic acid], the half-inhibitory concentration (IC50) under setting [1] is 50 to 300 nM.

`Nc1nc(O[C@H](c2ccc(Cl)cc2-c2cccnc2)C(F)(F)F)cc(N2CCC3(CC2)CN[C@H](C(=O)O)C3)n1` [Example 34bo, (S)-8-(2-amino-6-((R)-1-(4-chloro-2-(pyridin-3-yl)phenyl)-2,2,2-trifluoroethoxy)pyrimidin-4-yl)-2,8-diazaspiro[4.5]decane-3-carboxylic acid]: the concentration for half-maximal inhibition (IC50) under setting [2] was 50 to 300 nM.
